Reference: US5098933A, “Pharmaceutically useful Michael addition products of unsaturated aldehydes and ketones and ascorbic acid” (Theracel Corporation, priority 1990, dated 1992)
Where two headings read alike, the source gives them in different places.

Assays:
[1] = tested on: plaque forming cells, antibody specific to sheep red blood cells; experiment: Jerne Hemolytic Plaque Assay; assay type: in vivo, mice
Method: This assay measures the IgM or IgG isotypes of specific antibody produced by antigen used to immunize the mice. […] The direct assay detects IgM and the indirect assay detects IgG-specific antibody.
Washed spleen cells are added to an agarose (FMC, Rockland, Me.) preparation containing sheep red blood cells (SRBC) and guinea pig complement. A drop of this mixture is transferred to a small petri dish; a cover slip is then placed over the drop to flatten it. The agarose prep is allowed to solidify. Then, the dishes are placed in a small humidified changer inside a CO-2 incubator overnight.
Small pinpoint cleared areas (plaques) will be observed under the cover slip. The cleared areas are caused by antibody, specific to the SRBC's being released by stimulated spleen cells and in conjunction with the complement, lyse surrounding SRBC's. These plaque forming cells (PFC's) are counted, and calculations are performed to obtain PFC's per […] spleen cells.
1. Spleens are harvested from mice according to a standard procedure and adjusted to a final concentration of 20% in […].
14. Count and record the number of hemolytic plaques per plate. Average plaque counts between the duplicate sets. Multiply the average number of plaques per group by 2.5 to obtain the number of plaque forming cells per million spleen cells.

[2] = tested on: T- and B- lymphocyte isolated from mouse spleens; experiment: Lymphocyte Blastogenesis Assay; assay type: in vivo; conditions: for RPMI CONTROL: no mitogen (Table 9); for activation at 25 mg/kg / activation at 50 mg/kg / activation at 100 mg/kg / activation at 200 mg/kg: Mus musculus, Lymphocyte
Text: This assay measures the ability of the compound under test to affect DNA synthesis and mitosis of T- and B- lymphocyte isolated from mouse spleens.
Mitogens are substances which stimulate DNA synthesis and mitosis. The mitogens used in these studies were phytohemaglutinin (PHA) which is isolated from the red kidney bean and concanavalin-A (Con-A) which is isolated form the jack bean. Con-A binds to specific receptors (glycoproteins) containing mannosyl or glycosyl moieties and stimulates all murine T-cells to synthesize DNA, divide, and release lymphokines. Con-A in a soluble form allows distinction between T- and B-cells in the mouse, because although both T- and B-cells can bind 106 molecules of Con-A per cell, only T-cells are stimulated when this lectin is presented in a soluble form. PHA stimulates only subpopulations, T-2 cells, of T-cells in the mouse. Also, Con-A stimulates the production of cytokines such as Interleukin-2 (IL-2). In humans, both T- and B-cells are probably stimulated. The activation of B-cells by PHA may be indirect and mediated by the release of soluble mediators from PHA-activated T-cells.
The lymphocyte blastogenesis test is a method to assess the ability of immunocompetent T- or B-cells to respond to a polyclonal mitogen (i.e. PHA or Con-A) or a specific antigen. It may be performed on lymphocytes obtained from mice treated with immunostimulators in vivo or the entire assay can be performed in vitro. The assay as described below uses minimal doses of polyclonal mitogens to induce blastogenesis (proliferation measure by DNA synthesis), in order to be able to assess the phenomena of amplification.
1. Sacrifice two mice/experimental group by cervical dislocation.
14. […]
15. Include in the experiment a control plate which contains the same cells group as above, but receive a 0.1 ml of media instead of mitogen.
18. After 48 hours all wells receive 0.025 mls of a 0.4 microcurie/ml solution of C-14 methyl thymidine and incubate at 37 C, 5% CO-2 for 18 hours.

Question: Which “% INCREASE” value ([1]; 50 mg/kg (Table 11)) does the source give for `CC(=O)CCC1(O)C(=O)OC2C(O)COC21O` (stereo not drawn) [KBBL, 2-(3-Ketobutyl)-2-Hydroxy-3-Keto-4-Dihydroxyethyl Butyrolactone <3, 6> Cyclohemiketal] here?
Answer: 70.2%

Question: What about the PFC ([1]; 50 mg/kg (Table 11)) of the same compound?
Answer: 36.0 PFC/1 MILLION CELLS

Question: And the “% INCREASE” value ([1]; 100 mg/kg (Table 11))?
Answer: 104.3%

Question: And the PFC ([1]; 100 mg/kg (Table 11))?
Answer: 48.0 PFC/1 MILLION CELLS

Question: And the “% INCREASE” value ([1]; 200 mg/kg (Table 11))?
Answer: 106.4%

Question: And the PFC ([1]; 200 mg/kg (Table 11))?
Answer: 48.5 PFC/1 MILLION CELLS

Question: What about the “CON-A 1.5 ug” value ([2]; 25 mg/kg (Table 9)) of the same compound?
Answer: 3572

Question: And the “CON-A 2.25 ug” value ([2]; 25 mg/kg (Table 9))?
Answer: 5398

Question: And the “PHA 10.5 ug” value ([2]; 25 mg/kg (Table 9))?
Answer: 7935

Question: And the “PHA 14 ug” value ([2]; 25 mg/kg (Table 9))?
Answer: 10994

Question: And the “RPMI CONTROL” value ([2]; 25 mg/kg)?
Answer: 255

Question: And the “CON-A 1.5 ug” value ([2]; 50 mg/kg (Table 9))?
Answer: 2539

Question: What about the “CON-A 2.25 ug” value ([2]; 50 mg/kg (Table 9)) of the same compound?
Answer: 5802

Question: What about the “PHA 10.5 ug” value ([2]; 50 mg/kg (Table 9)) of the same compound?
Answer: 4579

Question: What about the “PHA 14 ug” value ([2]; 50 mg/kg (Table 9)) of the same compound?
Answer: 7295

Question: What about the “RPMI CONTROL” value ([2]; 50 mg/kg) of the same compound?
Answer: 92

Question: What about the “CON-A 1.5 ug” value ([2]; 100 mg/kg (Table 9)) of the same compound?
Answer: 1051

Question: What about the “CON-A 2.25 ug” value ([2]; 100 mg/kg (Table 9)) of the same compound?
Answer: 3056

Question: What about the “PHA 10.5 ug” value ([2]; 100 mg/kg (Table 9)) of the same compound?
Answer: 3540

Question: What about the “PHA 14 ug” value ([2]; 100 mg/kg (Table 9)) of the same compound?
Answer: 4878

Question: What about the “RPMI CONTROL” value ([2]; 100 mg/kg) of the same compound?
Answer: 33

Question: What about the “CON-A 1.5 ug” value ([2]; 200 mg/kg (Table 9)) of the same compound?
Answer: 2571

Question: What about the “CON-A 2.25 ug” value ([2]; 200 mg/kg (Table 9)) of the same compound?
Answer: 6891

Question: What about the “PHA 14 ug” value ([2]; 200 mg/kg (Table 9)) of the same compound?
Answer: 6963

Question: What about the “RPMI CONTROL” value ([2]; 200 mg/kg) of the same compound?
Answer: 55

Question: What about the activation at 25 mg/kg ([2]; 25 mg/kg (Table 9), read-out: % INCR. (CON-A 1.5 ug)) of the same compound?
Answer: 663%

Question: What about the activation at 25 mg/kg ([2]; 25 mg/kg (Table 9), read-out: % INCR. (CON-A 2.25 ug)) of the same compound?
Answer: 260%

Question: What about the activation at 25 mg/kg ([2]; 25 mg/kg (Table 9), read-out: % INCR. (PHA 10.5 ug)) of the same compound?
Answer: 356%

Question: What about the activation at 25 mg/kg ([2]; 25 mg/kg (Table 9), read-out: % INCR. (PHA 14 ug)) of the same compound?
Answer: 373%

Question: What about the activation at 50 mg/kg ([2]; 50 mg/kg (Table 9), read-out: % INCR. (CON-A 1.5 ug)) of the same compound?
Answer: 443%

Question: What about the activation at 50 mg/kg ([2]; 50 mg/kg (Table 9), read-out: % INCR. (CON-A 2.25 ug)) of the same compound?
Answer: 285%

Question: And the activation at 50 mg/kg ([2]; 50 mg/kg (Table 9), read-out: % INCR. (PHA 10.5 ug))?
Answer: 163%

Question: And the activation at 50 mg/kg ([2]; 50 mg/kg (Table 9), read-out: % INCR. (PHA 14 ug))?
Answer: 214%

Question: And the activation at 100 mg/kg ([2]; 100 mg/kg (Table 9), read-out: % INCR. (CON-A 1.5 ug))?
Answer: 54%

Question: And the activation at 100 mg/kg ([2]; 100 mg/kg (Table 9), read-out: % INCR. (CON-A 2.25 ug))?
Answer: 103%

Question: And the activation at 100 mg/kg ([2]; 100 mg/kg (Table 9), read-out: % INCR. (PHA 10.5 ug))?
Answer: 103%

Question: And the activation at 100 mg/kg ([2]; 100 mg/kg (Table 9), read-out: % INCR. (PHA 14 ug))?
Answer: 110%

Question: And the activation at 200 mg/kg ([2]; 200 mg/kg (Table 9), read-out: % INCR. (CON-A 1.5 ug))?
Answer: 449%

Question: What about the activation at 200 mg/kg ([2]; 200 mg/kg (Table 9), read-out: % INCR. (CON-A 2.25 ug)) of the same compound?
Answer: 357%

Question: What about the activation at 200 mg/kg ([2]; 200 mg/kg (Table 9), read-out: % INCR. (PHA 10.5 ug)) of the same compound?
Answer: 171%

Question: What about the activation at 200 mg/kg ([2]; 200 mg/kg (Table 9), read-out: % INCR. (PHA 14 ug)) of the same compound?
Answer: 200%

Question: And the “stimulation at all doses” value ([2]; all doses of PHA and Con-A, 25-200 mg/kg)?
Answer: stimulatory at all the doses of PHA and Con-A tested
